Source: publication PMC3179935, “Gallus gallus NEU3 sialidase as model to study protein evolution mechanism based on rapid evolving loops” (BMC Biochemistry, 2011)

Target: T1, Mm NEU3 (Mm NEU3-HA) (Mus musculus, UniProt Q9JMH7)
T1 construct: HA tag, pcDNAI, transiently expressed in COS7, total cell lysate
T1 sequence (Q9JMH7 1-418): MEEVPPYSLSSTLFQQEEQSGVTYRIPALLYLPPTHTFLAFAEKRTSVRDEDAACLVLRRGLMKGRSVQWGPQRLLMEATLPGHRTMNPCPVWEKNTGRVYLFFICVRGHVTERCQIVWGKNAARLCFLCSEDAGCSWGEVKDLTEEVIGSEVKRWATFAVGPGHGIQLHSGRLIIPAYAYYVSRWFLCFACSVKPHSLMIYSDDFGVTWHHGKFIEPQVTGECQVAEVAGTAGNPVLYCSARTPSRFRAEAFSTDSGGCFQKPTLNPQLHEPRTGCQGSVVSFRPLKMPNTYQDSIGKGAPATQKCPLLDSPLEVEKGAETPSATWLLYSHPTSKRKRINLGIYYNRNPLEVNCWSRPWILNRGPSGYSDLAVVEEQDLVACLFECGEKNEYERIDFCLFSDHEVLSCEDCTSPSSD
Assay: sialidase activity in transfected COS7 lysate
Type: biochemical
Conditions: positive control; pH range 2.5-5.5; 37 °C

How did the “sialidase activity in transfected COS7 lysate” value turn out when `CC(=O)N[C@H]1[C@H]([C@H](O)[C@H](O)CO)O[C@@](Oc2ccc3c(C)cc(=O)oc3c2)(C(=O)O)C[C@@H]1O` [4-MU-NeuAc] was run?
Its value is “pcDNAI-Mm NEU3-HA transfected cells were used as control”.
